# In patent US9381172B2, “Small molecule choline kinase inhibitors, screening assays, and methods for treatment of neoplastic disorders” (UNIVERSITY OF LOUISVILLE RESEARCH FOUNDATION, INC., priority 2009, dated 2016):
# Like-named read-outs stand apart in the source and are kept apart here.
# Legend:
# [1] = tested on: Jurkat Cells; assay: Cell Growth Inhibition, Jurkat cells (trypan blue exclusion); format: cell-based; conditions: for IC50: Homo sapiens, Jurkat, 48 h after treatment, 50% of vehicle-treated cell growth
# Method: (§1) HeLa (ATCC: CCL-2), A549-human lung carcinoma (ATCC: CCL-185), Lewis lung carcinoma (LLC) (ATCC: CRL-1642), and melanoma cells (ATCC: CRL-11147) were cultured in DMEM (Hyclone) supplemented with 10% fetal bovine serum (Hyclone) and 50 μg/mL gentamicin sulfate (Invitrogen). Jurkat leukemia cells were cultured in RPMI (Hyclone) supplemented with 10% fetal bovine serum and 50 μg/mL gentamicin sulfate. Human mammary epithelial cells were grown in mammary epithelial basal medium (Lonza) supplemented according to manufacturer's protocol. All cell lines were maintained at 5% CO2 at 37° C.
# (§2) All cell lines were plated at 1×10^5/mL in the appropriate medium. For suspension cells, the tested compound was added immediately to the medium, whereas the tested compound treatment was initiated the following day for adherent cell lines. For overexpression studies, HeLa cells were transiently transfected with empty vector or vector containing wild type choline kinase twenty-four hours prior to addition of increasing concentrations of CK37. Cells were then collected 48 h after treatment, and cell number and viability were determined by trypan blue exclusion. IC50s were calculated at the tested compound concentration needed for 50% of vehicle-treated cell growth (see Table 4). The data represented are the mean±STD from triplicate measurements from three independent experiments.
# [2] = tested on: HeLa Cells; assay: Cell Growth Inhibition, HeLa cells (trypan blue exclusion); format: cell-based; conditions: for IC50: Homo sapiens, HeLa, 48 h after treatment, 50% of vehicle-treated cell growth
# Method: as §1, §2
# [3] = tested on: choline kinase (HeLa lysates); assay: Choline kinase activity assay of HeLa cell lysates; format: biochemical; conditions: HeLa cell lysate; FIG. 7
# Method: Choline kinase activity was assayed as described previously in Hernandez-Alcoceba et al. “Choline kinase inhibitors as a novel approach for antiproliferative drug design,” Oncogene 1997, 15:2289-2301, the disclosure of which is incorporated herein by this reference. For HeLa cell lysate, equal volume of lysate was incubated in the presence or absence of the tested compound in kinase assay buffer (100 mM Tris-HCl, 100 mM MgCl2, 10 mM ATP, 200 μM choline, and 2 μM methyl[^14C]-choline chloride (50-60 μCi, mmol). Reactions were carried out at 37° C. for one hour and immediately stopped by addition of TCA (Trichloroacetic Acid) to a final concentration of 16%. The TCA soluble fraction was then washed 3× with four volumes of water saturated ethyl ether, and dried under vacuum. Metabolites were separated by thin layer chromatography using 60 Å silica gel plates and a liquid phase consisting of 0.9% NaCl:methanol:ammonium hydroxide (50:70:5; V:V:V). Radioactive images were resolved by PhosphorImager screening and densitometry was performed using Image Quant software.
# [4] = target: choline kinase; conditions: reported; cited from earlier work
# [5] = reported; cited from earlier work
# [6] = tested on: HeLa cell endogenous choline kinase; conditions: reported; cited from earlier work
# [7] = tested on: HT-29 human adenocarcinoma cells; conditions: reported; cited from earlier work
# [8] = Tolerability of intraperitoneal CK37 in C57B1/6 mice; format: in vivo
# Method: In order to investigate some possible non-toxic doses of CK37 for use in vivo, we intraperitoneally injected C57B1/6 mice with 0.06, 0.07, and 0.08 mg/g of CK37. […] C57B1/6 mice bearing Lewis Lung Carcinoma xenografts (mean baseline mass=143±14 mg) were given intraperitoneal injections of 0.08 mg/g CK37 daily for nine days. As shown in FIG. 5A-B, CK37 administration suppressed tumor growth by 48% compared to the vehicle control group.
# [9] = tested on: primary mammary epithelial cells (HMEC); assay: Cell Growth Inhibition, primary mammary epithelial cells; format: cell-based, human; conditions: FIG. 3B
# Method: as §1, §2
# [10] = tested on: Lewis Lung Carcinoma; assay: Mouse tumors: Lewis lung carcinoma in C57B1/6 mice; format: in vivo; conditions: 0.08 mg/g i.p. daily for nine days
# Method: Exponentially growing Lewis lung carcinoma cells were collected, washed twice, and resuspended in PBS (1×10^7/mL). C57B1/6 female mice (20 g) were injected s.c. with 0.1 mL of the suspension. Body weight and tumor growth were monitored daily throughout the study. Tumor masses were determined by measurement with Vernier calipers using the formula: mass (mg)=[width^2 (mm)×length (mm)]/2. Mice with established tumors (between 130 and 190 mg) were randomized into vehicle control or the tested compound treated groups. Vehicle control groups received i.p. injections of 50 μL DMSO, whereas treated groups received 0.08 mg/g the tested compound in 50 μL DMSO at the indicated time points. All protocols were approved by the University of Louisville Institutional Animal Care and Use Committee.
# [11] = tested on: HeLa Cells; assay: Soft agar colony formation; format: cell-based; conditions: 5 μM CK37; 14 days; Control: 2506±158
# Method: HeLa cells were plated at a density of 25×10^3 cells per 60-mm plate with 3 mL bottom agar (0.6%) and 2 mL top agar (0.3%) in normal growth medium. Cells were fed every three days by addition of a new layer of top agar which contained increasing concentrations of the tested compound. After 14 days of growth, colonies were counted in random from 1 cm squared sections of each plate.
# [12] = tested on: MDA-MB-231 mammary carcinoma cells; assay: Cell Growth Inhibition, MDA-MB-231 cells; format: cell-based; conditions: FIG. 3B
# Method: as §2
# [13] = tested on: various neoplastic cell lines from both solid and hematologic origins; assay: Cell Growth Inhibition, various neoplastic cell lines; format: cell-based; conditions: all tumor cell lines investigated; FIG. 3A; read-out: IC50 values of cell growth suppression
# Method: as §1, §2
# [14] = tested on: endogenous choline kinase (HeLa cells); assay: Choline kinase activity in whole HeLa cells (radiolabeled choline); format: cell-based
# Method: For HeLa cell labeling, cells were seeded at 1×10^5 cells/mL and incubated with increasing concentrations of the tested compound for 48 hours. Methyl[^14C]-choline chloride was added 24 hours before cell harvest, and cells were extracted and analyzed as described above. Densitometry units were normalized to total protein levels for each sample.
IC50 [1] [µM],IC50 [2] [µM],SMILES,further results
> 10,> 25,COc1ccccc1CNC(=O)CN1C(=O)NC(C)(c2ccc(C)cc2)C1=O (stereo not shown) [K],–
> 10,> 25,COc1cc(C(C)=O)ccc1OCC(=O)NCc1ccc(C)cc1 [J],–
> 10,15.2,CSc1ccc(C=CC(=O)OCC(=O)NC(Cc2ccccc2)C(C)=O)cc1 (stereo not shown) [C],–
> 10,> 25,COCCNC(=O)CN1C(=O)NC(C)(c2ccc(C)cc2)C1=O (stereo not shown) [M],–
> 10,> 25,CCC(=O)c1ccc(OCC(=O)OCc2csc(-c3ccc(OC)cc3)n2)cc1 [I],–
> 10,> 25,C[C@@]1(c2ccc3ccccc3c2)NC(=O)N(CC(=O)OCC(=O)NCCC#N)C1=O [B],–
> 10,> 25,CCC1(c2ccccc2)NC(=O)N(CC(=O)c2ccc(OC)cc2OC)C1=O (stereo not shown) [A],–
9.8,12.6,COc1ccc(OCC(=O)OC(C)C(=O)Nc2cccc3ccccc23)cc1 (stereo not shown) [CP6],Jurkat cell proliferation ([1]; FIG. 9): selectively suppresses Jurkat cell proliferation; endogenous choline kinase activity [3]: dose-dependent decrease in endogenous choline kinase activity; HeLa cell proliferation ([2]; FIG. 8): selectively suppresses HeLa cell proliferation
> 10,> 25,CCCNC(=O)COC(=O)CN1C(=O)N[C@@](C)(c2ccc(C)cc2)C1=O [H],–
–,–,CN(C)c1cc[n+](Cc2ccc(CCCCc3ccc(C[n+]4ccc(N(C)C)cc4)cc3)cc2)cc1.[Br-].[Br-] [MN58B],IC50 [4]: 4.2 µM; dose limiting toxicity [5]: 5 to 10 mg/kg; inhibition in HeLa cell endogenous choline kinase [6]: 75%; IC50 [7]: 0.5 µM
> 10,> 25,C=CCn1c(COc2cccc(C)c2)nnc1SCc1ncc(-c2ccccc2)o1 [O],–
> 10,18.3,COc1ccccc1COC(=O)CN1C(=O)N[C@@](C)(c2ccc(C)cc2)C1=O [P],–
> 10,> 25,CCc1ccc(C(=O)CN2C(=O)NC(CC)(c3ccccc3)C2=O)cc1 (stereo not shown) [E],–
> 10,> 25,CC(OC(=O)CCC(=O)c1cccs1)C(=O)Nc1cccc2ccccc12 (stereo not shown) [G],–

SMILES,IC50 [1] [µM],IC50 [2] [µM],further results
"CCc1ccc(-c2nnc(SCC(=O)Nc3cc(C)cc(C)c3)[nH]2)cc1 [CK37, N-(3,5-dimethylphenyl)-2-[[5-(4-ethylphenyl)-1H-1,2,4-triazol-3-yl]sulfanyl]acetamide]",5.4,4.2,"clinical signs or symptoms of distress ([8]; 0.06, 0.07, and 0.08 mg/g intraperitoneally): no clinical signs or symptoms of distress; dose limiting toxicity ([8]; mice): > 80 mg/kg; CK37 concentration compared for growth suppression [9]: 10 µM; tumor growth suppression compared to the vehicle control group [10]: 48%; wet weight of resected tumors at the end of treatment ([10]; Vehicle: 1109±107 mg, p<0.01): 648 ± 96 mg; number of soft agar colonies [11]: 360±77; CK37 concentration compared for growth suppression ([12]; MDA-MB-231): 0.5 µM; difference in selectivity against neoplastic versus primary cell growth ([12]; MDA-MB-231 versus HMEC): 20 fold; IC50 [13]: 5 to 10 µM; inhibition of endogenous choline kinase activity in whole cells ([14]; 10 μM, 48 hours, FIG. 2B): 61.7%±9.7%; decrease in HeLa cell endogenous choline kinase ([14]; about the same concentration as MN58B, somewhat different conditions): 60%"
